Measurements: patent US20260265271A1, “Cereblon Ligands and Uses Thereof” (REGENTS OF THE UNIVERSITY OF MICHIGAN, priority 2022, published 2026)
pIC50: −log10 of the molar value. Where a name gives a salt, the structure may show the parent alone.

Columns and labels:
ER [1] = target: T1, ER (Homo sapiens, UniProt P03372); assay: ER degradation by in-cell western (ICW), MCF7 cells; assay type: cell-based; parameters: endogenous in cells; host or cells: MCF-7; conditions: for DC50: MCF7 cells, ER in-cell western, 16 hours; for Dmax: MCF7, read-out: MCF7 Dmax (%)
T1 sequence (P03372 whole entry): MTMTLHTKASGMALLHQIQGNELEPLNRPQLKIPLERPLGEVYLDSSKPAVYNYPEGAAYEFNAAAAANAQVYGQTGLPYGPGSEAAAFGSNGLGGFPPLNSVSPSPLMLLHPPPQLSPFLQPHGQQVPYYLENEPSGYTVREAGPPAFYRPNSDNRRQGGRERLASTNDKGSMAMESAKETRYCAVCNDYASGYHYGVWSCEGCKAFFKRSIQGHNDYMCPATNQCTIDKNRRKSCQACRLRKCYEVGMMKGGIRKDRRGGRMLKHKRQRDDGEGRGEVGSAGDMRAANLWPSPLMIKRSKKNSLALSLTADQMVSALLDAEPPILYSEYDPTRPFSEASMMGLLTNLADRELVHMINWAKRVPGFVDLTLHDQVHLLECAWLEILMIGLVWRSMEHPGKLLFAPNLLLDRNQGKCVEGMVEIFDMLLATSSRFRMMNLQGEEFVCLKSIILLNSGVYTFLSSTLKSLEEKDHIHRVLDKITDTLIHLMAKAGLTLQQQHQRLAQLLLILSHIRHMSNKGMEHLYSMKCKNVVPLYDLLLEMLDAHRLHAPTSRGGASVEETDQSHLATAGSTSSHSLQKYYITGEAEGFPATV
Procedure: (§1) ERa degradative activity of compounds can be assessed in MCF-7 and T47D Cells. MCF-7 and T47D cell are seeded and are subsequently treated with the compounds at certain concentrations (e.g., 0.02 to 300 nM). DMSO can be used as vehicle control. Cells are fixed and are blocked with Intercept (PBS) Blocking Buffer (e.g., Li—COR, Odyssey Blocking Buffer), and are stained with ER (e.g., 1:500, Cell signaling) primary antibody for overnight at cold room. Secondary Antibody (e.g., IRDye 800CW Goat anti-Rabbit IgG) and CellTag 700 Stain are added in Intercept (PBS) Blocking Buffer. Finally, cell plate is placed in incubator to dry. Image and signal were captured on Odyssey@DLx Imaging System.
(§2) In-cell western blot analysis. Cells are seeded in multi-well plates (e.g., at 40,000 or 10,000 cells/well). Diluted compounds at certain concentration are added (final 0.5% DMSO) and cells are incubated for certain period of time (e.g., 16 hours). Formaldehyde (e.g., PBS:FA=9:1) is added and followed by washing with PBS. The cells are blocked with Licor blocking buffer (Li-Cor). The relative ER percentage in treated cells were obtained by comparing the values of treated wells to those in untreated and DMSO-treated wells as 100%.
(§3) In-cell western blot analysis. a. seed cells in black-sided/clear bottom 96- or 384-well plates at 40,000 or 10,000 cells/well, overnight; b. add diluted compounds (final 0.5% DMSO), 16 hours. […] RT 2 h, gentle shaking. Negative control: cells plus secondary antibodies (no primary antibodies); e. wash×4 with PBS +0.05-0.1% Tween 20, gentel shaking; f. anti-rabbit-680 and anti-mouse-800 (both 1:1000 in LiCor block +0.05% Tween20, RT 1 h, gentle shaking, no light. LI-COR: 0.2% to reduce background; g. wash×4 with PBS+0.05% Tween 20, gental shaking; h. add 100 μL or 25 μL of PBS to each well and read on CLX plate reader. The relative ER percentage in treated cells were obtained by comparing the values of treated wells to those in untreated and DMSO-treated wells as 100%.

IKZF2 = target: T2, IKZF2 (Homo sapiens, UniProt Q96SW2+Q9UKS7); assay: IKZF2 HiBiT degradation assay (Jurkat-IKZF2-HiBiT); assay type: cell-based
T2 construct: host or cells: Jurkat-IKZF2-HiBiT
T2 sequence (Q9UKS7 whole entry): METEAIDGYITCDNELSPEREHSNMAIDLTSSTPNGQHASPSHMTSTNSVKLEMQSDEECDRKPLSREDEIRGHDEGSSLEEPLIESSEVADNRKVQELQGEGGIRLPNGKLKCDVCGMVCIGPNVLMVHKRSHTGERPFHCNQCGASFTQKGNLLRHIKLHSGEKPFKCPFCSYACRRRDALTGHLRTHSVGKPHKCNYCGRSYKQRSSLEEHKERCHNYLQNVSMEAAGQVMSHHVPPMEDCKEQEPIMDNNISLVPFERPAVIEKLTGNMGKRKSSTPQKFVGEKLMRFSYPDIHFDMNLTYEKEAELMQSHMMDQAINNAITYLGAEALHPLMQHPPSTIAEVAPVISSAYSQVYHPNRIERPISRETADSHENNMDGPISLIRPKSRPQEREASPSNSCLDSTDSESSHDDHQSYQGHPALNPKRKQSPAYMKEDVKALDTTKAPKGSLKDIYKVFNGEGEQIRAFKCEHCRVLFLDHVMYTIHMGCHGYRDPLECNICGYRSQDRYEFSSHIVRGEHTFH
T2 sequence (Q96SW2 whole entry): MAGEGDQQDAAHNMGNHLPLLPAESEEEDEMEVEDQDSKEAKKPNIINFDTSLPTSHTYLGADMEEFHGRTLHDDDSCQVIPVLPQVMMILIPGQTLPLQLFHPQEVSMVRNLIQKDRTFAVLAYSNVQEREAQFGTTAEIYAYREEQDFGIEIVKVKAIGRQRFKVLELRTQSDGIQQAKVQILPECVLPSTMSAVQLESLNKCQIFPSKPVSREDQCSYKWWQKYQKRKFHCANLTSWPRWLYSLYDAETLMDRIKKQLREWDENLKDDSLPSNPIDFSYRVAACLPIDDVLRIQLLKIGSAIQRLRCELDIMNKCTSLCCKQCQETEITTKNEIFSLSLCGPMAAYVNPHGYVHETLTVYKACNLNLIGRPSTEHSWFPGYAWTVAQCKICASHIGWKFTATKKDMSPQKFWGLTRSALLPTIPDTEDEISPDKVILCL
T2 sequence (Q16531 2-1140 partner limits assumed): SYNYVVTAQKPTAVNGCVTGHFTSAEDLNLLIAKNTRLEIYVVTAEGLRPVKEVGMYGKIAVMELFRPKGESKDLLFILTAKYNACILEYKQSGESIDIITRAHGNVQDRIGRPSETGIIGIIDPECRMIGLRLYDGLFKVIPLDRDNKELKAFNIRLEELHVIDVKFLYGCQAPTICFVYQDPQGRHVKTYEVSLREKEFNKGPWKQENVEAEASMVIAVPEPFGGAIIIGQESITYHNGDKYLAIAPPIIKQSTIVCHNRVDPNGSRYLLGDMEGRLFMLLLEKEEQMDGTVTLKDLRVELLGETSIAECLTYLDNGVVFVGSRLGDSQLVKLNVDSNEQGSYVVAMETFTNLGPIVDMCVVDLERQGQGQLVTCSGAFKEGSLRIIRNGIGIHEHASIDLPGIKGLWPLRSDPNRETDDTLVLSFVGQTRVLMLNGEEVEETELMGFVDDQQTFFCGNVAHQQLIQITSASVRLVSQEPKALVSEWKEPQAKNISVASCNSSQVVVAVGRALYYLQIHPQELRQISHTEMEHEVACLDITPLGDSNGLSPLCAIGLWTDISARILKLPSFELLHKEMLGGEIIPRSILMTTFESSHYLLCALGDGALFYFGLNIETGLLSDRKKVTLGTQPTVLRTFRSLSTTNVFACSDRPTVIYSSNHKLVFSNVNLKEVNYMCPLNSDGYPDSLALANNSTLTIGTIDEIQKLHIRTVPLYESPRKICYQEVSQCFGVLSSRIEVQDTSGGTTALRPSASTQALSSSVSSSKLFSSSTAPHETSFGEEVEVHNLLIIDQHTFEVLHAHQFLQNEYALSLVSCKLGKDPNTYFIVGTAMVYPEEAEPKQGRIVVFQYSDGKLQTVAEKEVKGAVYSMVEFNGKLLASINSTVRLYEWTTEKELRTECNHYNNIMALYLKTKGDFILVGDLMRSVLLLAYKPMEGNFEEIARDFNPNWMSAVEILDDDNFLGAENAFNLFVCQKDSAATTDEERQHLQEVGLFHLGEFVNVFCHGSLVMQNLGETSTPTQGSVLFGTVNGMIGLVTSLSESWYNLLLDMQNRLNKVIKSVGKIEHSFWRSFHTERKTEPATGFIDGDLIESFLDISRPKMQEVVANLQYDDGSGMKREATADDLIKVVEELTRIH
Procedure: Degradation of IKZF2 protein was determined by IKZF2 HiBiT assay using the Jurkat-IKZF2-HiBiT (Promega) cell line. […] Compounds were serially diluted in culture medium, and 20 μl of the diluted compounds were added to the appropriate wells of the plate. After the addition of compounds, the cells were incubated at 37° C. in an atmosphere of 5% CO2 for 24 hours. At the end of treatment, 40 ul of Nano-Glo HiBiT Lytic Detection Reagent (Promega) was added to each well, and then the plates were incubated at room temperature for 10-20 minutes. The luminescent signal was measured using a CALRIOstar plate reader (BMG Labtech). The readings were normalized to the DMSO-treated cells and the IC50 was calculated by nonlinear regression (four parameters sigmoid fitted with variable slope, least squares fit, and no constraint) analysis using the GraphPad Prism 8 software.

[2] = target: wild-type human CRBN protein (Homo sapiens, UniProt Q96SW2); assay: biochemical
wild-type human CRBN protein, sequence (Q96SW2 whole entry): as the sequence (Q96SW2 whole entry) above

CRBN/DDB1 = CRBN/DDB1 (Homo sapiens, UniProt Q96SW2); assay: biochemical
CRBN/DDB1, sequence (Q96SW2 whole entry): as above
CRBN/DDB1, sequence (Q16531 whole entry, further chain): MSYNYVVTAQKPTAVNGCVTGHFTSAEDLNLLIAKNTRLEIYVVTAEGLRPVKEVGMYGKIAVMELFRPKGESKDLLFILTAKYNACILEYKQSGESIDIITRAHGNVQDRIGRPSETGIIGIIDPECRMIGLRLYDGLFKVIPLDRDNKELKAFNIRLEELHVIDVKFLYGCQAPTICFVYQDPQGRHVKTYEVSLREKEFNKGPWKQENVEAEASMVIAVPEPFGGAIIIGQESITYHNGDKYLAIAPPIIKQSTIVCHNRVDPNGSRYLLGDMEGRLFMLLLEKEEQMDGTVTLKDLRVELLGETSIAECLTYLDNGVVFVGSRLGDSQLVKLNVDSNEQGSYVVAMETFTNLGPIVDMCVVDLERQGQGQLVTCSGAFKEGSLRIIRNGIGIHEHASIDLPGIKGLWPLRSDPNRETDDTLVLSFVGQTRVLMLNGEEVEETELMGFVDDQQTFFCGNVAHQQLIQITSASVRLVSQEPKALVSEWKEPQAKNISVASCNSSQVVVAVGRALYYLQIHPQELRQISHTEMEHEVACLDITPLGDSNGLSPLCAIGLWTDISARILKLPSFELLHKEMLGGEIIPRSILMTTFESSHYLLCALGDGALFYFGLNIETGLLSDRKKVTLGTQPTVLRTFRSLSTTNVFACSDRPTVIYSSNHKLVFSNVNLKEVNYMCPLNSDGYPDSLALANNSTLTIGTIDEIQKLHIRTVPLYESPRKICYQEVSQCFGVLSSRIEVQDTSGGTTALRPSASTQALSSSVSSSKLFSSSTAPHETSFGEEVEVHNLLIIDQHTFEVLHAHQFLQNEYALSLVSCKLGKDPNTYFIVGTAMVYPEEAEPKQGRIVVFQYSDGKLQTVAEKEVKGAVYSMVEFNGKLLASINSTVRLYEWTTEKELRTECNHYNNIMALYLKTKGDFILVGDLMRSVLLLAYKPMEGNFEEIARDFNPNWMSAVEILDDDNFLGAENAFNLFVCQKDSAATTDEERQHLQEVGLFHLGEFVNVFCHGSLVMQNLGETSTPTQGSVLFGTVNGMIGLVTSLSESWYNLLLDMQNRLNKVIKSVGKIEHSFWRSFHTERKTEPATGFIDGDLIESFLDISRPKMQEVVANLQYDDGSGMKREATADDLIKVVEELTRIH

ER [3] = target: T1, ER; assay: ER degradation by in-cell western (ICW), T47D cells; assay type: cell-based; parameters: endogenous in cells; host or cells: T47D; conditions: for DC50: T47D cells, ER in-cell western, 16 hours; for Dmax: T47D, read-out: T47D Dmax (%)
Procedure: as §1, §2, §3

pIC50 (CRBN/DDB1)	Compound	DC50 (ER [1]) [nM]	Dmax (ER [1]) [%]	also measured
–	O=C1CC[C@@H](N2Cc3cc4c(cc3C2=O)OC[C@H]2CN(CC3CCC5(CC3)CN(c3ccc([C@H]6c7ccc(O)cc7OC[C@H]6c6ccccc6)cc3)C5)CCN42)C(=O)N1 [CHR-A118, (R)-3-((R)-3-((2-(4-((3R,4S)-7-hydroxy-3-phenylchroman-4-yl)phenyl)-2-azaspiro[3.5]nonan-7-yl)methyl)-8-oxo-1,2,3,4,4a,5,8,10-octahydro-9H-pyrazino[1′,2′:4,5][1,4]oxazino[2,3-f]isoindol-9-yl)piperidine-2,6-dione]	1 to 10	–	–
–	O=C1CCC(N2Cc3cc4c(cc3C2=O)OC[C@@H]2CN(Cc3ccc(F)cc3)CCN42)C(=O)N1 (stereo partly drawn) [Compound C19, 3-((S)-3-(4-fluorobenzyl)-8-oxo-1,2,3,4,4a,5,8,10-octahydro-9H-pyrazino[1′,2′:4,5][1,4]oxazino[2,3-f]isoindol-9-yl)piperidine-2,6-dione]	–	–	DC50 (IKZF2; read-out: IKZF2 degradation DC50, Jurkat-IKZF2-HiBiT cells, 24 hours): > 2000 nM; Dmax (IKZF2; read-out: IKZF2 degradation Dmax (%)): 0%; pIC50 [2]: 6.48
6.48	CC(C)(C)OC(=O)N1CCN2c3cc4c(cc3OC[C@@H]2C1)C(=O)N(C1CCC(=O)NC1=O)C4 (stereo partly drawn) [Compound A3, tert-butyl (4aS)-9-(2,6-dioxopiperidin-3-yl)-8-oxo-1,2,4a,5,9,10-hexahydro-8H-pyrazino[1′,2′:4,5][1,4]oxazino[2,3-f]isoindole-3(4H)-carboxylate]	–	–	–
5.44	CN1CCN2c3cc(F)c(C(=O)N[C@H]4CCC(=O)NC4=O)cc3OC[C@@H]2C1 [Compound A2, (S)—N—((S)-2,6-dioxopiperidin-3-yl)-9-fluoro-3-methyl-1,2,3,4,4a,5-hexahydrobenzo[b]pyrazino[1,2-d][1,4]oxazine-8-carboxamide]	–	–	–
6.37	O=C1CC[C@H](N2Cc3cc4c(cc3C2=O)OC[C@@H]2CNCCN42)C(=O)N1 [Compound A8, (S)-3-((S)-8-oxo-3,4,4a,5-tetrahydro-1H-pyrazino [1′,2′:4,5][1,4]oxazino[2,3-f]isoindol-9(2H,8H,10H)-yl)piperidine-2,6-dione hydrochloride]	–	–	–
–	O=C1CC[C@H](N2Cc3cc4c(cc3C2=O)OC[C@@H]2CN(CC3CC5(CCN(c6ccc([C@@H]7c8ccc(O)cc8OC[C@@H]7c7ccccc7)cc6)CC5)C3)CCN42)C(=O)N1 [CHR-A59, (S)-3-((S)-3-((7-(4-((3S,4R)-7-hydroxy-3-phenylchroman-4-yl)phenyl)-7-azaspiro[3.5]nonan-2-yl)methyl)-8-oxo-1,2,3,4,4a,5,8,10-octahydro-9H-pyrazino[1′,2′:4,5][1,4]oxazino[2,3-f]isoindol-9-yl)piperidine-2,6-dione]	1 to 10	50 to 75	–
–	C[C@@H]1Cc2c(ccc3[nH]ncc23)[C@@H](c2ccc(N3CCC4(CC3)CC(CN3CCN5c6cc7c(cc6OC[C@@H]5C3)C(=O)N([C@@H]3CCC(=O)NC3=O)C7)C4)cn2)N1CC1(F)CC1 [IDZ-A12, (R)-3-((S)-3-((7-(6-((6S,8R)-7-((1-fluorocyclopropyl)methyl)-8-methyl-6,7,8,9-tetrahydro-3H-pyrazolo[4,3-f]isoquinolin-6-yl)pyridin-3-yl)-7-azaspiro[3.5]nonan-2-yl)methyl)-8-oxo-1,2,3,4,4a,5,8,10-octahydro-9H-pyrazino[1′,2′:4,5][1,4]oxazino[2,3-f]isoindol-9-yl)piperidine-2,6-dione]	< 1	> 75	DC50 (ER [3]): < 1 nM; Dmax (ER [3]): > 75%
–	C[C@@H]1Cc2c([nH]c3ccccc23)[C@@H](c2cnc(N3CCC4(CC3)CC(CN3CCN5c6ccc(C(=O)N[C@H]7CCC(=O)NC7=O)nc6OC[C@H]5C3)CO4)nc2)N1CC(F)F (stereo partly drawn) [IND-A63, (4aR)-3-((8-(5-((1R,3R)-2-(2,2-difluoroethyl)-3-methyl-2,3,4,9-tetrahydro-1H-pyrido[3,4-b]indol-1-yl)pyrimidin-2-yl)-1-oxa-8-azaspiro[4.5]decan-3-yl)methyl)-N—((S)-2,6-dioxopiperidin-3-yl)-1,2,3,4,4a,5-hexahydropyrazino[1,2-d]pyrido[2,3-b][1,4]oxazine-8-carboxamide]	1 to 10	50 to 75	DC50 (ER [3]): 1 to 10 nM; Dmax (ER [3]): 50 to 75%
4.66	O=C1CC[C@H](NC(=O)c2cc3c(cc2F)N2CCNC[C@H]2CO3)C(=O)N1 [Compound A1, (S)—N—((S)-2,6-dioxopiperidin-3-yl)-9-fluoro-1,2,3,4,4a,5-hexahydrobenzo[b]pyrazino[1,2-d][1,4]oxazine-8-carboxamide hydrochloride]	–	–	–
–	CN1CCN2c3cc4c(cc3OC[C@@H]2C1)C(=O)N(C1CCC(=O)NC1=O)C4 (stereo partly drawn) [Compound B5, 3-((S)-3-methyl-8-oxo-1,2,3,4,4a,5,8,10-octahydro-9H-pyrazino[1′,2′:4,5][1,4]oxazino[2,3-f]isoindol-9-yl)piperidine-2,6-dione]	–	–	pIC50 [2]: 6.04
